Laboratory results reported in ChEMBL document CHEMBL3244202, “Synthesis and analgesic-antiinflammatory activity of some 4- and 5-substituted heteroarylsalicylic acids” (J Med Chem, 1978).
In brackets after ≈: the same amount, converted by molar mass.

Key:
Rattus norvegicus [1] = experiment: Antiinflammatory activity in po dosed rat assessed as inhibition of carrageenan-induced paw edema; type: functional
[2] = Aqueous solubility of the compound in phosphate buffer at pH 7; type: physicochemical
Rattus norvegicus [3] = experiment: Analgesic activity in po dosed rat by hyperesthesia test; type: functional
Homo sapiens = species on record: Homo sapiens; experiment: Inhibition of prostaglandin synthetase (unknown origin)
Rattus norvegicus [4] = experiment: Antiinflammatory activity in po dosed rat assessed as reduction in adjuvant arthritis-induced lesion administered on days 17 to 20 post adjuvant arthritis-challenge measured on day 20; type: functional; conditions: 480 h
Rattus norvegicus [5] = experiment: Antiinflammatory activity in po dosed rat assessed as reduction in adjuvant arthritis-induced lesion administered for 1 to 14 days measured on day 14; type: functional
Rattus norvegicus [6] = experiment: Gastrointestinal toxicity in rat assessed as gastric hemorrhage administered on days 17 to 20 measured on day 20; type: organism-based, Stomach; conditions: in vivo
Rattus norvegicus [7] = experiment: Antipyretic activity in po dosed rat assessed as dose required to produce drop in body temperature of 1 degC administered on days 17 to 20 measured on day 20; type: functional; conditions: 480 h
Canis familiaris = experiment: Antiinflammatory activity in po dosed dog assessed as reduction in urate synovitis measured after 2 hrs; type: functional; conditions: Canis lupus familiaris
Rattus norvegicus [8] = experiment: Antiinflammatory activity in po dosed Wistar rat assessed as reduction in adjuvant arthritis-induced lesion administered on days -1 through 1 measured on days 0 and 14
Rattus norvegicus [9] = experiment: Antipyretic activity in po dosed rat administered on days 17 to 20 measured on day 20; conditions: 480 h

| SMILES | ED50 (Rattus norvegicus [1]) [mg/kg] | also measured |
| --- | --- | --- |
| O=C(O)c1cc(C2N=NN=N2)ccc1O | 110 | solubility [2]: 1700 µg/mL (≈ 8.25 mM) |
| CCCCOC(=O)Oc1ccc(-n2cccc2)cc1C(=O)O | 52 | ED50 (Rattus norvegicus [3]): 38 mg/kg |
| O=C(O)c1cc(-c2ccncn2)ccc1O | > 200 | – |
| O=C(O)c1cc(-c2cccs2)ccc1O | 60 | solubility [2]: 7000 µg/mL (≈ 31.8 mM) |
| CC(=O)Oc1ccc(-n2cccc2)cc1C(=O)O | 42 | ED50 (Rattus norvegicus [3]): 35 mg/kg |
| O=C(O)c1cc(-c2c[nH]cn2)ccc1O | 100 | solubility [2]: 1100 µg/mL (≈ 5.39 mM) |
| O=C(O)c1cc(-n2cncn2)ccc1O | 200 | – |
| O=C(O)c1cc(-c2ccc(F)cc2F)ccc1O [DIFLUNISAL] | 9.8 | ED50 (Rattus norvegicus [3]): 4.6 mg/kg |
| O=C(O)c1ccc(-c2cscn2)cc1O | 70 | ED50 (Rattus norvegicus [3]): > 80 mg/kg; solubility [2]: 8700 µg/mL (≈ 39.3 mM) |
| O=C(O)c1cc(-n2cccc2)ccc1O | 50 | ED50 (Rattus norvegicus [3]): 30 mg/kg; solubility [2]: 8600 µg/mL (≈ 42.3 mM); ID50 (Homo sapiens): 0.3 µg/mL (≈ 0.00148 mM); ED50 (Rattus norvegicus [4]): 35 mg/kg; ED50 (Rattus norvegicus [5]): 64 mg/kg; ED50 (Rattus norvegicus [6]): > 800 mg/kg; ED10 (Rattus norvegicus [7]): 401 mg/kg; ED50 (Canis familiaris): 39 mg/kg; ED50 (Rattus norvegicus [8]): 58 mg/kg |
| O=C(O)c1cc(-c2cncs2)ccc1O | > 200 | – |
| O=C(O)c1cc(-n2ccnc2)ccc1O | 75 | ED50 (Rattus norvegicus [3]): 65 mg/kg; solubility [2]: 2000 µg/mL (≈ 9.8 mM) |
| O=C(O)c1cc(-n2ccnn2)ccc1O | 150 | – |
| O=C(O)c1cc(-c2nccs2)ccc1O | > 250 | – |
| O=C(O)c1cc(-c2ccno2)ccc1O | 110 | – |
| O=C(O)c1ccc(-c2nccs2)cc1O | 110 | – |
| O=C(O)c1cc(-c2cc[nH]n2)ccc1O | > 250 | – |

| SMILES | ED50 (Rattus norvegicus [1]) [mg/kg] | also measured |
| --- | --- | --- |
| O=C(O)c1ccccc1O [SALICYLIC ACID] | 200 | ED50 (Rattus norvegicus [3]): > 150 mg/kg |
| O=C(O)c1ccc(-c2ncco2)cc1O | > 250 | – |
| O=C(O)c1cc(-c2csnn2)ccc1O | > 200 | – |
| O=C(O)c1cc(-n2cccn2)ccc1O | 200 | – |
| O=C(O)c1ccc(-n2cccc2)cc1O | 200 | – |
| O=C(O)c1cc(-c2ncc[nH]2)ccc1O | 200 | – |
| O=C(O)c1cc(-c2ncco2)ccc1O | 100 | solubility [2]: 6000 µg/mL (≈ 29.2 mM) |
| O=C(O)c1cc(-c2ncccn2)ccc1O | 100 | solubility [2]: 6000 µg/mL (≈ 27.8 mM) |
| O=C(O)c1cc(-c2cscn2)ccc1O | 95 | ED50 (Rattus norvegicus [3]): 90 mg/kg; solubility [2]: 2700 µg/mL (≈ 12.2 mM) |
| O=C(O)c1cc(-n2cnnc2)ccc1O | > 250 | – |
| CC(=O)Oc1ccccc1C(=O)O [ASPIRIN] | 90 | ED50 (Rattus norvegicus [3]): 90 mg/kg; ID50 (Homo sapiens): 5 µg/mL (≈ 0.0278 mM); ED50 (Rattus norvegicus [4]): 25 mg/kg; ED50 (Rattus norvegicus [5]): 33 mg/kg; ED50 (Rattus norvegicus [6]): 16 mg/kg; ED50 (Rattus norvegicus [9]): 43 mg/kg; ED50 (Canis familiaris): 68 mg/kg; ED50 (Rattus norvegicus [8]): 46 mg/kg |
| O=C(O)c1cc(-n2nccn2)ccc1O | 150 | – |
| O=C(O)c1cc(-c2cccnc2)ccc1O | > 250 | – |
| O=C(O)c1cc(-c2cnco2)ccc1O | > 200 | – |
| O=C(O)c1cc(-c2cocn2)ccc1O | 110 | – |
| O=C(O)c1cc(-c2ccccn2)ccc1O | 200 | – |
| O=C(O)c1cc(-c2ccns2)ccc1O | 80 | ED50 (Rattus norvegicus [3]): > 80 mg/kg; solubility [2]: 7300 µg/mL (≈ 33 mM) |
